The values that follow are results of earlier work, collected in patent US6495170B1, “Method of increasing the presence of glutathione in cells” (N. V. Nutricia, priority 2000, dated 2002).

For series [1] the following is noted: ingested in large amounts.
Series [2] relates to γ-GCS. Conditions: mediated by increased expression of γ-GCS mRNA and enzyme activity via AP-1.
For series [3], the system named is mitochondrial GSH.
The conditions of series [4]: 50 mg/kg p.o., mice treated with CCl4.
The conditions of series [5]: 200 μg/day supplement for 2 months.
The conditions of series [6]: mice, ethanol-induced liver peroxidation, pretreatment 200 mg/kg.
For series [7], the system named is isolated rat hepatocytes.
Series [8] has as its system hepatic glutathione. To be noted: induced by ethyl alcohol and paracetamol, rats.
For series [9], the system named is human erythrocytes.
Series [10] relates to glutathione-S-transferase.
Series [11] concerns human neutrophils.
Series [12] deals with hepatoblastoma Hep G2 cells.

As for `CC(=O)Nc1ccc(O)cc1` [Acetaminophen, acetaminophen], the hepatotoxicity result in series [1] is on record as “severe hepatic necrosis”.

Regarding `COc1cc(C(C)=O)ccc1O` [Apocynin], in series [2], the “intracellular GSH synthesis” value is listed as “enhances”.

Take `O=NN(CCCl)C(=O)NCCCl` [BCNU]: in [3] (CCl4-intoxicated mice), the GSH reductase activity result is on record as “inhibited” and the “effect on the protective activity of schisandrin B” value is reported as “did not affect”.

In the case of `COc1cc(C(=O)O[C@H]2[C@@H]3C=CO[C@@H](O[C@@H]4O[C@H](CO)[C@@H](O)[C@H](O)[C@H]4O)[C@@H]3[C@@]3(CO)O[C@@H]23)ccc1O` [Picroside II], in [4], the hepatoprotective activity result was “showed a hepatoprotective activity”.

For `[Se]` [Selenium], in series [5], the peroxidative parameters result was “no effect”; the “plasma selenium levels and glutathione peroxidase” value is reported as “significantly improved”.

Regarding `COc1cc2c(c(OC)c1OC)-c1c(cc3c(c1OC)OCO3)CC(C)C(C)C2` (stereo not shown) [schisandrin B], in series [6], the GSH-peroxidase activity result is “unaffected”; the “dismutase and catalase activity” value is given as “increased”. In addition, in series [3] (3 mmol/kg/day p.o.), the GSH/GSSG ratio entry is on record as “elevating”, the GSSG level entry is “decreased”, the “mitochondrial GSH level” value is reported as “increased” and the “mitochondrial GSH reductase activity” value is given as “increased”.

Consider `COc1cc2c(c(O)c1OC)-c1c(cc(OC)c(OC)c1OC)C[C@@H](C)[C@@H](C)C2` [schisanhenol], for which, in series [6], the GSH-peroxidase activity result is listed as “unaffected”; the “dismutase and catalase activity” value is listed as “increased”.

Consider `COc1cc(C2Oc3cc([C@H]4Oc5cc(O)cc(O)c5C(=O)[C@@H]4O)ccc3OC2CO)ccc1O` (stereo partly shown) [silybin], for which, in [7], the “GSH depletion by buthionine sulfoximide” value is recorded as “does not affect” and the “GSH depletion induced by acetaminophen” value was “reduces”. The hepatic glutathione depletion entry in [8] was “protect”. Also, in [9], the “activity of superoxide dismutase and glutathione peroxidase” value is “increased”. Moreover, in [10], the “inhibition of glutathione-S-transferase” value is “potent, non-toxic, inhibitor”. In series [11], the “superoxide and hydrogen peroxide production” value is on record as “inhibitory effects”.

For `[Zn]` [zinc, Zinc], the “plasma zinc bound to RBP” value is recorded as below 2%, the “plasma zinc bound to albumin” value was 80-85% and the “plasma zinc bound to alpha2-macroglobulin” value is 15%.

For the molecule silymarin, the “acetaminophen-induced GSH depletion and cytotoxicity” value in [12] is reported as “protects”.
